Data: US8629148B2, “Substituted oxindole-derivatives and the use thereof for the treatment of vasopressin-dependent illnesses” (AbbVie Deutschland GmbH & Co. KG, priority 2007, dated 2014)

Columns and labels:
[1] = target: human vasopressin V1a receptor (Homo sapiens, UniProt P37288); experiment: Vasopressin V1a receptor binding assay (125I-AVP displacement, CHO-K1 membranes); conditions: selectivity quotient, human V1a vs human V1b
[2] = target: T1, recombinant human oxytocin receptors (Homo sapiens, UniProt P30559); experiment: Oxytocin receptor binding assay (3H-oxytocin, HEK-293 cells); conditions: selectivity quotient, human OT vs human V1b
T1 construct: expressed in transfected cells; host or cells: HEK-293, transient expression; lysed and homogenized cells
T1 sequence (P30559 1-389): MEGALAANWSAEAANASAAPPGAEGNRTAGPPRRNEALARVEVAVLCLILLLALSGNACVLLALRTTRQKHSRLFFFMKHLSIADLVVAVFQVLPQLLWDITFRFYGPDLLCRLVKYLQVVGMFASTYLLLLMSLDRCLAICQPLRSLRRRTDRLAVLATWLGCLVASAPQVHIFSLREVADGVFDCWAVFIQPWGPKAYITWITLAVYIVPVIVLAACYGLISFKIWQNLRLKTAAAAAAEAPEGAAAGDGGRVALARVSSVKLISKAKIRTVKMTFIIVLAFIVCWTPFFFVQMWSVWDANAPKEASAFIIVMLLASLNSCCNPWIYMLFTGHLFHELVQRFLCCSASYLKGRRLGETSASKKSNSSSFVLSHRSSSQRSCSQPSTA
Experimental: The residue was taken up in ice-cold lysis buffer (50 mM Tris-HCl, 10% glycerol, pH 7.4 and Roche complete protease inhibitor) and subjected to an osmotic shock at 4° C. for 20 minutes. The lyzed cells were then centrifuged at 750×g at 4° C. for 20 minutes, the residue was taken up in incubation buffer, and aliquots of 10^7 cells/ml were prepared. The aliquots were frozen at −80° C. until used.
On the day of the experiment, the cells were thawed, diluted with incubation buffer and homogenized using a Multipette Combitip (Eppendorf, Hamburg). […] Triplicate determinations were set up. Bound and free radioligand were separated by filtration under vacuum with Whatman GF/B glass fiber filters with the aid of a Skatron cell harvester 7000. The bound radioactivity was determined by liquid scintillation measurement in a Tricarb Beta counter, model 2000 or 2200CA (Packard).

[3] = target: T2, human vasopressin V1b receptor (Homo sapiens, UniProt P47901); experiment: Vasopressin V1b receptor binding assay (3H-AVP displacement, CHO-K1 membranes)
T2 construct: expressed in transfected cells; host or cells: CHO-K1 (cell line hV1b_3H2_CHO), membranes
T2 sequence (P47901 1-424): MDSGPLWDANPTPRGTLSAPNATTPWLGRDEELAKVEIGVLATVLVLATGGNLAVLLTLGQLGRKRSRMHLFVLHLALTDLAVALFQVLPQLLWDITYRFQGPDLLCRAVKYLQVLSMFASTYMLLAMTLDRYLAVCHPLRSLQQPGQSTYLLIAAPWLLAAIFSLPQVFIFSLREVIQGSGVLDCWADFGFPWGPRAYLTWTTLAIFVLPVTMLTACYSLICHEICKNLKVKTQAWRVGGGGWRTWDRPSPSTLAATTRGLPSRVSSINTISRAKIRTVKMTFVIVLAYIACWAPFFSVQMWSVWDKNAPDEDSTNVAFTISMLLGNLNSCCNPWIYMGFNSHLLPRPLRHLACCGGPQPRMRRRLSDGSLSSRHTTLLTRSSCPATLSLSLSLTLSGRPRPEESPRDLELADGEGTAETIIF
Experimental: 1. Vasopressin V1b Receptor Binding Assay:
The substance concentration was further diluted 1:5 in the assay mixture (2% DMSO in the mixture).
All determinations were carried out as triplicate determinations.

Sequence of human vasopressin V1a receptor (P37288 whole entry): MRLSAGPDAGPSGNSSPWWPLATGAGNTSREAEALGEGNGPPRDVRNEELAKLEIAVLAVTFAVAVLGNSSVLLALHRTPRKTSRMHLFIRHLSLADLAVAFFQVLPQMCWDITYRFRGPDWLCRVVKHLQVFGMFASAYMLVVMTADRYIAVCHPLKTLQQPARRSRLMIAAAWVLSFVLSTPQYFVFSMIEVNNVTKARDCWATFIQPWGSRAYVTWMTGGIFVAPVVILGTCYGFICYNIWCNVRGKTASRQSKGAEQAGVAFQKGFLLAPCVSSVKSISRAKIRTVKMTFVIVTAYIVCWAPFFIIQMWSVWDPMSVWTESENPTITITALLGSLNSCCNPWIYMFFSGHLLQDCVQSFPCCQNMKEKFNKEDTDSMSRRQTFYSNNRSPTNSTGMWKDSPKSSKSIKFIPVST

`CCOc1ncccc1C1(NCc2cccc(N3CCN(C)CC3)c2)C(=O)N(S(=O)(=O)c2ccc(OC)cc2)c2ccc(C#N)cc21` (stereo not drawn) [Example 43, 3-(2-Ethoxypyridin-3-yl)-1-(4-methoxyphenylsulfonyl)-3-[3-(4-methylpiperazin-1-yl)-benzylamino]-2-oxo-2,3-dihydro-1H-indole-5-carbonitrile] was tested. Which “Ki(h-V1a)/Ki(h-V1b)*” value [1] did it give?
Its value is “+++ (>75)”.

What about the “Ki(h-OT)/Ki(h-V1b)*” value [2] of the same molecule?
Its value is “+ (10-<25)”.

What about the Ki [3] of the same molecule?
Its Ki is 1 to 10 nM.

`CCOc1ncccc1C1(Nc2ccc(N3CCN(C)CC3)cc2)C(=O)N(S(=O)(=O)c2ccc(OC)cc2)c2ccc(I)cc21` (stereo not drawn) [Example 50, 3-(2-Ethoxypyridin-3-yl)-5-iodo-1-(4-methoxyphenylsulfonyl)-3-[4-(4-methylpiperazin-1-yl)-phenylamino]-1,3-dihydroindol-2-one] was tested. Which “Ki(h-V1a)/Ki(h-V1b)*” value [1] did it give?
The value was “+ (10-<25)”.

And the “Ki(h-OT)/Ki(h-V1b)*” value [2]?
The value was “+++ (>75)”.

And the Ki [3]?
The Ki was 1 to 10 nM.

Which “Ki(h-V1a)/Ki(h-V1b)*” value [1] does the source give for `CCOc1ncccc1C1(Nc2ccc(N3CCN(CC)CC3)cc2)C(=O)N(S(=O)(=O)c2ccc(OC)cc2)c2ccc(C#N)cc21` (stereo not drawn) [Example 57, 3-(2-Ethoxypyridin-3-yl)-3-[4-(4-ethylpiperazin-1-yl)phenylamino]-1-(4-methoxyphenylsulfonyl)-2-oxo-2,3-dihydro-1H-indole-5-carbonitrile] here?
The value was “++ (25-75)”.

And the “Ki(h-OT)/Ki(h-V1b)*” value [2]?
Its value is “+++ (>75)”.

And the Ki [3]?
The Ki was 10 to 100 nM.

`CCOc1ncccc1C1(Nc2ccc(N3CCN(C)CC3)cc2)C(=O)N(S(=O)(=O)c2ccc(OC)cc2)c2cc(F)c(C#N)cc21` (stereo not drawn) [Example 59, 3-(2-Ethoxypyridin-3-yl)-6-fluoro-1-(4-methoxyphenylsulfonyl)-3-[4-(4-methylpiperazin-1-yl)phenylamino]-2-oxo-2,3-dihydro-1H-indole-5-carbonitrile] was tested. Which “Ki(h-V1a)/Ki(h-V1b)*” value [1] did it give?
The value was “++ (25-75)”.

And the “Ki(h-OT)/Ki(h-V1b)*” value [2]?
Its value is “+++ (>75)”.

What about the Ki [3] of the same molecule?
The Ki was 1 to 10 nM.

With `CCOc1ncccc1C1(Nc2cccc(N3CCN(C)CC3)c2)C(=O)N(S(=O)(=O)c2ccc(OC)cc2OC)c2ccc(I)cc21` (stereo not drawn) [Example 60, 1-(2,4-Dimethoxyphenylsulfonyl)-3-(2-ethoxypyridin-3-yl)-5-iodo-3-[3-(4-methylpiperazin-1-yl)phenylamino]-1,3-dihydroindol-2-one] as the molecule, how does the “Ki(h-V1a)/Ki(h-V1b)*” value [1] read?
The value was “++ (25-75)”.

And the “Ki(h-OT)/Ki(h-V1b)*” value [2]?
The value was “++ (25-75)”.

What about the Ki [3] of the same molecule?
Its Ki is 1 to 10 nM.

`CCOc1ncccc1C1(Nc2ccc(N3CCN(C)CC3)nc2)C(=O)N(S(=O)(=O)c2ccc(OC)cc2)c2ccc(I)cc21` (stereo not drawn) [Example 68, 3-(2-Ethoxypyridin-3-yl)-5-iodo-1-(4-methoxyphenylsulfonyl)-3-[6-(4-methylpiperazin-1-yl)-pyridin-3-ylamino]-1,3-dihydroindol-2-one] was tested. Which “Ki(h-V1a)/Ki(h-V1b)*” value [1] did it give?
The value was “+ (10-<25)”.

What about the “Ki(h-OT)/Ki(h-V1b)*” value [2] of the same molecule?
Its value is “++ (25-75)”.

What about the Ki [3] of the same molecule?
The Ki was 1 to 10 nM.

For `CCOc1ncccc1C1(Nc2ccc(C(=O)N3CCN(C)CC3)cc2)C(=O)N(S(=O)(=O)c2ccc(OC)cc2)c2ccc(I)cc21` (stereo not drawn) [Example 70, 3-(2-Ethoxypyridin-3-yl)-5-iodo-1-(4-methoxyphenylsulfonyl)-3-[4-(4-methylpiperazin-1-carbonyl)phenylamino]-1,3-dihydroindol-2-one], which “Ki(h-V1a)/Ki(h-V1b)*” value [1] is on record?
Its value is “++ (25-75)”.

And the “Ki(h-OT)/Ki(h-V1b)*” value [2]?
The value was “+ (10-<25)”.

And the Ki [3]?
Its Ki is 1 to 10 nM.

Which “Ki(h-V1a)/Ki(h-V1b)*” value [1] does the source give for `CCOc1ncccc1C1(Nc2ccc(C(=O)N3CCN(C)CC3)cc2)C(=O)N(S(=O)(=O)c2ccc(OC)cc2OC)c2ccc(C#N)cc21` (stereo not drawn) [Example 73, 1-(2,4-Dimethoxyphenylsulfonyl)-3-(2-ethoxypyridin-3-yl)-3-[4-(4-methylpiperazin-1-carbonyl)phenylamino]-2-oxo-2,3-dihydro-1H-indole-5-carbonitrile] here?
Its value is “+++ (>75)”.

And the “Ki(h-OT)/Ki(h-V1b)*” value [2]?
Its value is “++ (25-75)”.

And the Ki [3]?
Its Ki is 10 to 100 nM.

What does the source list for `CCOc1ncccc1C1(Nc2ccc(CN3CCN(C)CC3)cc2)C(=O)N(S(=O)(=O)c2ccc(OC)cc2OC)c2ccc(C#N)cc21` (stereo not drawn) [Example 74, 1-(2,4-Dimethoxyphenylsulfonyl)-3-(2-ethoxypyridin-3-yl)-3-[4-(4-methylpiperazin-1-ylmethyl)phenylamino]-2-oxo-2,3-dihydro-1H-indole-5-carbonitrile]?
Ki(h-V1a)/Ki(h-V1b)* [1]: +++ (>75); Ki(h-OT)/Ki(h-V1b)* [2]: +++ (>75); Ki [3]: 1 to 10 nM

`CCOc1ncccc1C1(Nc2ccc(CN3CCN(C)CC3)cc2)C(=O)N(S(=O)(=O)c2ccc(OC)cc2)c2ccc(C#N)cc21` (stereo not drawn) [Example 75, 3-(2-Ethoxypyridin-3-yl)-1-(4-methoxyphenylsulfonyl)-3-[4-(4-methylpiperazin-1-ylmethyl)-phenylamino]-2-oxo-2,3-dihydro-1H-indole-5-carbonitrile] was tested. Which “Ki(h-V1a)/Ki(h-V1b)*” value [1] did it give?
The value was “++ (25-75)”.

And the “Ki(h-OT)/Ki(h-V1b)*” value [2]?
The value was “+++ (>75)”.

And the Ki [3]?
Its Ki is 10 to 100 nM.

Which results are given for `COc1ccc(S(=O)(=O)N2C(=O)C(NCc3ccc(N4CCN(C)CC4)cc3)(c3cccnc3OCC(F)(F)F)c3cc(C#N)ccc32)cc1` (stereo not drawn) [Example 77, 1-(4-Methoxyphenylsulfonyl)-3-(2-(2,2,2-trifluoroethoxy)pyridin-3-yl)-3-[4-(4-methylpiperazin-1-yl)benzylamino]-2-oxo-2,3-dihydro-1H-indole-5-carbonitrile]?
Ki(h-V1a)/Ki(h-V1b)* [1]: ++ (25-75); Ki(h-OT)/Ki(h-V1b)* [2]: ++ (25-75); Ki [3]: 1 to 10 nM

For `CCN1CCN(c2ccc(NC3(c4cccnc4OCC(F)F)C(=O)N(S(=O)(=O)c4ccc(OC)cc4)c4ccc(C#N)cc43)cc2)CC1` (stereo not drawn) [Example 79, 3-[4-(4-Ethylpiperazin-1-yl)phenylamino]-1-(4-methoxyphenylsulfonyl)-3-(2-(2,2-difluoroethoxy)pyridin-3-yl)-2-oxo-2,3-dihydro-1H-indole-5-carbonitrile], which “Ki(h-V1a)/Ki(h-V1b)*” value [1] is on record?
The value was “++ (25-75)”.

What about the “Ki(h-OT)/Ki(h-V1b)*” value [2] of the same molecule?
Its value is “+++ (>75)”.

What about the Ki [3] of the same molecule?
Its Ki is 10 to 100 nM.
